Measured values published in US9139615B2, “High-affinity, dimeric inhibitors of PSD-95 as efficient neuroprotectants against ischemic brain damage and for treatment of pain” (University of Copenhagen, priority 2011, dated 2015).
Where no end group is shown, it is not given here.

What was measured:
[1] = Physiological status of pMCAO mice (blood values, body weight, temperature, survival); format: in vivo; settings: mouse, in vivo
Procedure: The physiological status of the mice was carefully monitored prior to and during pMCAO surgery in order to exclude the observed effects of treatment with dimeric PSD-95 inhibitors being due to secondary conditions (e.g. disease-related) resulting from the experimental procedure.
9.10 Body weight monitoring: The body weight of each mouse was registered during pre-training, before surgery, and at 24 and 48 hours after surgery and no differences were seen between the treatment groups (FIG. 13).
9.11 Temperature monitoring: The rectal temperature of the mouse was continuously measured using a thermocoupled probe connected to a Model Bat 12 unit (Physitemp). The temperature was measured prior to and 30 min after pMCAO in addition to 30 min and 2.5 hours after i.v. injection, i.e. 1 and 3 hours after pMCAO.
9.12 Blood gas analysis: One samples of venous blood was taken for blood gas analysis of PO2/PCO2 electrolytes, glucose, lactate, and hematocrit, 30 min after compound administration (1 hour after pMCAO). A capillary heparin coated tube was inserted along the inner corner of eye and turned until it penetrated the conjunctiva. A sample of blood (150 μl) was collected and stored on ice until gas analysis using the GEM Premier 300 blood gas instrument (Instrumentation Laboratory) Quality controls (QC ContrlIL9) were purchased from IL Sensor Systems. Also, no differences were detected in blood gas parameters (PO2/PCO2, pH, electrolytes, glu/lac), which were similar between the groups and within normal range, when compared to unmanipulated control mice (Table 4).

PDZ1-2 of PSD-95 = target: T1, PDZ1-2 of PSD-95 (Homo sapiens, UniProt P78352); test: Fluorescence polarization (FP) assay, affinity for PDZ1-2 of PSD-95; format: binding; settings: Ki ± SEM, affinity towards PDZ1-2 of PSD-95, heterologous competition, probe AB143 0.5 nM, PDZ1-2 […], TBS pH 7.4; IC50 converted to Ki
T1 construct: made in house; host or cells: E. coli BL21-DE3 pLysS
T1 sequence (P78352 with tags, fused parts or gaps): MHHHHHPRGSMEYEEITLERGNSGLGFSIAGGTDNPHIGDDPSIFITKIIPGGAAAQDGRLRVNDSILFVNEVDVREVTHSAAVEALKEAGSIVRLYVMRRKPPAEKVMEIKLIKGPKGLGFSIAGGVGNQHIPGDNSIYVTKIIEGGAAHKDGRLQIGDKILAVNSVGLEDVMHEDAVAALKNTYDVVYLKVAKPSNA
Text: VI.i. Fluorescence Polarization (FP) Assay: as described below, Example 1 provides a convenient and reliable way to monitor and evaluate the inhibitor properties of a PSD-95 inhibitor of the invention. The FP assay allows a wide range of peptide analogues to be tested and compared with respect to their interaction with PDZ domains, and their specificity with respect to the tandem PDZ1-2 of PSD-95. PDZ1-2 is expressed using standard recombinant DNA technology known to those skilled in the art.
More specifically, the assay is based on a heterologous competition binding assay, where the affinity measured as IC50 of a given (non-fluorescent) peptide analogue for a PDZ domain is measured in the presence of a fixed concentration of a fluorescent labeled dimeric ligand (AB143; FIG. 4). Determined IC50 values are converted to Ki values (Nikolovska-Coleska et al, Anal. Biochem. 2004, 332, p. 261-273). The 5-FAM fluorophore may be attached to the dimeric ligand by coupling with HATU or HBTU.
The cDNA coding for PSD-95 PDZ1-2 tandem (corresponding to residues 61-249 in the human full-length PSD95α without exon 4b) were amplified by inverted PCR and cloned in a modified His-tagged pRSET vector (Invitrogen, Carlsbad, Calif., USA). The encoded PDZ1-2 peptide further comprised the sequence, […] (SEQ ID NO: 14), which was used as a tag for purification (His-tag), and the DNA coding sequences and encoded proteins are designated as follows: HIS-PDZ1-2 DNA [SEQ ID NO: 1] encoding HIS-PDZ1-2 protein [SEQ ID NO: 2]. Competent E. coli bacteria (BL21-DE3, pLysS) were transformed with PDZ1-2 expressing construct and grown overnight on agar plates containing ampicillin (100 μg/mL) and chloramphenicol (35 μg/mL) at 37° C. Colonies were picked and used to inoculate bacterial cultures (LB medium with 50 μg/mL ampicillin). These were shaken while being incubated at 37° C. until A600 of the culture reached 0.45, at which point 1 mM isopropyl β-D-1-thiogalactopyranoside was added. Induced cultures were incubated over night at 30° C. (PDZ1-2). Cells were harvested by spinning at 10,000 g for 10 min at 4° C. and re-suspended in lysis buffer (50 mM Tris/HCL pH 7.5, 1 mM PMSF, 25 μg/ml DNAse, 40 mM Mg2SO4). The cells were destroyed using a cell disruptor apparatus at 26 KPsi. The cell lysate was spun down at 35,000 g for 1 hour and the supernatant filtered with a 0.45 μm and a 0.22 μm filter. Purification of expressed PDZ1-2 peptide was performed with first a nickel (II)-charged column (HisTrap™ HP, GE Healthcare, UK) equilibrated with Tris-buffer (Tris/HCl buffer 50 mM, pH 7.5) followed by gel-filtration. For gel-filtration the PDZ1-2 sample was loaded on a Superdex™ 75 HR 10/30 column (GE Healthcare, UK) equilibrated with Tris buffer (20 mM Tris/HCL, pH 7.5) with a constant flow rate at 0.5 mL/min. The relevant fractions were analyzed on a SDS-PAGE gel stained by a standard silver staining protocol. The final purification was analyzed by electrospray ionization liquid chromatography-mass spectrometry (ESI-LC/MS) to get the exact molecular weight and thereby verify the identity of the PDZ1-2 domain. Molar extinction coefficients were found by amino acids analysis (Alphalyse, Odense, Denmark) and thereafter used for measuring protein concentrations. […]
An in vitro affinity measurement assay was developed based on the fluorescence polarization principle in order to provide affinity constants (Ki values) between synthesized ligands (e.g. dimeric inhibitors) and PDZ1-2 of PSD-95. […]

## YGRKKRRQRRRKLSSIESDV [Tat-NR2B9c, reference compound]
[1]
  Hct: 40.8 ± 0.6%
  [Ca2+]: 1.32 ± 0.01 mmol/L
  [K+]: 5.1 ± 0.13 mmol/L
  [Lactate]: 0.87 ± 0.07 mmol/L
  [Na+]: 147 ± 0.3 mmol/L
  pCO2: 106 ± 2.4 mmHg
  pO2: 55.2 ± 2.6 mmHg
PDZ1-2 of PSD-95
  Ki: 4.6 ± 0.3 µM
